In ChEMBL document CHEMBL1149036, “Swertifrancheside, an HIV-reverse transcriptase inhibitor and the first flavone-xanthone dimer, from Swertia franchetiana” (J Nat Prod, 1994):
Values after ≈ are worked out from the molar mass of the structure shown.

Assays:
[1] = target: Human immunodeficiency virus type 1 reverse transcriptase (Human immunodeficiency virus 1) (UniProt Q72547); assay: Inhibition of HIV1 reverse transcriptase
[2] = target: Human immunodeficiency virus type 1 reverse transcriptase (Human immunodeficiency virus 1) (UniProt Q72547); assay: Inhibition of HIV1 reverse transcriptase at 200 ug/mL

Compound	ED50 [1] [µg/mL]	inhibition [2] [%]
COc1cc(O)c2c(=O)c3c(O)c(-c4c(O)c([C@@H]5O[C@H](CO)[C@@H](O)[C@H](O)[C@H]5O)c(O)c5c(=O)cc(-c6ccc(O)c(O)c6)oc45)cc(O)c3oc2c1	30.9 (≈ 42.9 µM)	99.8
COc1cc(O)c2c(=O)c3c(O)c(-c4c(O)c([C@@H]5O[C@H](CO)[C@@H](O)[C@H](O)[C@H]5O)c(O)c5c(=O)c6cc(O)c(O)cc6oc45)cc(O)c3oc2c1	3 (≈ 4.32 µM)	
